Measurements as given in patent US20230141718A1, “METHODS OF TREATING GLIOBLASTOMA” (CELGENE QUANTICEL RESEARCH, INC., priority 2021, published 2023).

Key:
[1] = Safety (TRAEs/TEAEs), CC-90010-GBM-002 Parts A and B; type: in vivo
Description: This was then followed by a break in treatment therapy, e.g., from 1 to up to 4 weeks. […] Adjuvant therapy cycles were repeated from 2 to 6 times. After adjuvant therapy, was a monotherapy treatment.
The demographics and characteristics of treated patients are described in the below table.

[2] = cited from earlier work
[3] = test system: glioblastoma; conditions: in vivo; cited from earlier work

With `Cn1nnc2c(C(N)=O)ncn2c1=O` [TMZ, 3,4-dihydro-3-methyl-4-oxoimidazo[5,1-d]-as-tetrazine-8-carboxamide, reference compound] the “patients with TRAEs related to TMZ” value ([1]; Part B arm A) was 75%, the “patients with nausea related to TMZ” value ([1]; Part B arm A) was 46% and the “patients with thrombocytopenia related to TMZ” value ([1]; Part B arm A) was 46%. For the same compound, the “patients with TRAEs related to TMZ” value ([1]; Part B arm B) was 73% and the “patients with thrombocytopenia related to TMZ” value ([1]; Part B arm B) was 40%.
In the case of `C#Cc1cccc(Nc2ncnc3cc(OCCOC)c(OCCOC)cc23)c1` [erlotinib], the “tissue:plasma ratio” value ([2]; brain tumor tissue) is listed as 0.06-0.08.
In the case of `COc1cc2ncnc(Nc3ccc(F)c(Cl)c3)c2cc1OCCCN1CCOCC1` [gefitinib], the “antitumor activity in glioblastoma” value [3] is given as “neither lapatinib nor gefitinib have shown evidence of antitumor activity”, the “median concentration in tumor tissue” value ([2]; glioblastoma tumor tissue) is given as 4100 ng/g and the “median concentration in plasma” value ([2]; in vivo) is given as 181 ng/mL.
For `CS(=O)(=O)CCNCc1ccc(-c2ccc3ncnc(Nc4ccc(OCc5cccc(F)c5)c(Cl)c4)c3c2)o1` [lapatinib], the “antitumor activity in glioblastoma” value [3] is listed as “neither lapatinib nor gefitinib have shown evidence of antitumor activity” and the “tissue:plasma ratio, mean” value ([2]; brain tumor tissue) is listed as 13.0.
For `O=C(c1cc(Cc2n[nH]c(=O)c3ccccc23)ccc1F)N1CCN(C(=O)C2CC2)CC1` [olaparib], the “tissue:plasma ratio, mean” value ([2]; brain tumor tissue) is listed as 0.25.
